Measurements as given in patent publication US20170217982A1, “Compound isolated from Pseudolysimachion rotundum var. subintegrum, the composition comprising the same for treating allergic disease, inflammatory disease, asthma or chronic obstructive pulmonary disease and the use thereof” (YUNGJIN PHARMACEUTICAL CO., LTD, priority 2014, published 2017).
“And” between values parts separate entries of the source, which are not always exact repeats. Equal entries are not always repeated.

Legend:
Format in all cases: cell-based, human
H292 cell = experiment: Evaluation of cytotoxicity in H292 cell (CCK-8); conditions: for H292 cell viability (%, mean ± variation): 24 hours, CCK-8
Method: In order to determine the cytotoxicity of inventive compound, following preliminary test was performed by the method disclosed in the literature (Shiyama et al., Talanta, 1997, 44, 1299-1305; Tominaga et al., Anal. Commun., 1999, 36, 47-50).
HT1080 (CRL-12012), H292 (CRL-1848) and murine EL4 cells (TIB-39) were purchased from company (American Type Culture Collection).
HT1080 (CRL-12012) and murine EL4 cells were cultured in DMEM medium (SB30243.01, Dulbecco's modified Eagle's medium; DMEM, HyClone) supplemented with 10% FBS (Fetal Bovine Serum; Gibco) and antibiotic (100 units/ml penicillin+100 units/ml streptomycin). H292 cell was cultured in RPMI medium (SH30027.01, RPMI 1640, Gibco) supplemented with 10% FBS and antibiotic. The cells were cultures under the condition of humidified 5% CO2 atmosphere at 37° C. PMA (P8139, Phorbol 12-myristate 13-acetate) was purchased from the company (Sigma Chemical Co., St. Louis, Mo.) and TNF-α is from the company (300-01A, PeproTech, NJ USA Inc.) to use in the experiment.
H292 cell line, a human hung mucosal cancer cell line, was suspended in 10% FBS-supplemented RPMI medium in a concentration of 5×10^4 cells/ml, and 100 μl of the suspension was inoculated into 96 well plates to adhere cell to the plate for 12 hours. Various concentrations of test sample (KS 534 compound) were treated therewith and cultured for 24 hours. 10 μL of CCK-8 solution was mixed with 90 μL of the medium and 100 μL of solution was added to each well. After reacting from 30 mins to 4 hours, the absorbance of the solution was determined at 570 nm. The cell viability was calculated according to following Math formulae 1 based on negative control group treated with 0.2% DMSO and the result was shown in Table 2.
Cell viability (%)=OD 570 nm (test group)/OD 570 nm (negative control group)×100 Math formulae 1

MUC5AC = experiment: Inhibition of TNF-alpha induced MUC5AC mRNA expression in H292 cells (qRT-PCR); conditions: TNF-α 20 ng/ml
Method: In order to determine the inhibitory effect on the expression of MUC5AC induced by TNF-alpha in H292 cell line, following test was performed:
The isolation of total RNA, cDNA synthesis and quantitative real-time PCR were performed by the method disclosed in the literature (Kim et al., J. Cell. Biochem. 2008, 104, 1906-1917).
In summary, total RNA was isolated using by TRIzol reagent (155596-026, Life Technologies) and the first strand cDNA was synthesized using by enzyme (Omniscript Reverse Transcriptase, 205113, Qiagen, Calif.). The quantitative real-time PCR amplification was performed using by apparatus 1 (S1000 Thermal cycler, Bio-rad, USA) and apparatus 2 (2× Greenstar master mix, Bioneer, Korea) according to the manufacture's manual.
Specifically, the reproduced amount of TNF-alpha induced MUC5AC was determined by Real-time polymerase chain reaction (real-time PCR), quantitative real time polymerase chain reaction (qPCR) and MUC5AC immunoassay. H292 cells were inoculated into 48 well plates in a concentration of 2×10^4 cells/well to adhere for 24 hours and the culture medium was replaced with new 0.1% FBS containing medium to culture for 24 hours. […]
In order to extract total RNA, RNA was extracted using by Trizol B (Invitrogen) and cDNA was synthesized using by Omniscript RT kit (Qiagen, GmbH, Hilden, Germany) after the quantification.

MUC5AC protein = experiment: Inhibition of MUC5AC protein secretion (modified ELISA) in H292 cells; conditions: TNF-alpha 20 ng/ml
Method: In order to determine the inhibitory effect on the reproduction of MUC5AC protein, following test was performed by the method disclosed in the literature (Sikder, M A. et al., Phytother. Res., 2014, 28, 62-68)
For the immunoassay on reproduced MUCSAC, 50 μL of collected supernatant in Experimental Example 3 was distributed to 96 well plate and dried in a thermostat at 50[…].
After washing with 1% BSA added PBS solution, MUCSAC antibody (ab3649, abcam Co.) was added to react together at room temperature for 1 hour and then secondary antibody was added thereto to react together for 1 hour. After re-washing, 3,3′,5,5′-tetramethylbenzidine peroxide solution (54827-17-7, Sigma-aldrich) was added thereto to react together for 20 mins. After stopping the reaction by adding sulfuric acid solution, the absorbance was determined by VERSAmax microplate reader, (SMP500-14915, Molecular Devices, USA) at 450 nm (Sikder, M. A. et al., Phytother. Res., 2014, 28, 62-68; Takeyama, K. et al. Proc. Natl. Acad. Sci. U.S.A., 1999, 96, 3081-3086).

O=C(CO)O[C@@H]1O[C@@H]2C[C@H]3[C@H](OC(=O)c4ccc(O)c(O)c4)[C@@H](Cl)[C@@](O)(CO2)[C@@H]13 [KS-534, (3R,5S,5aS,6R,7S,8R,8aS)-8-chloro-8a-hydroxy-5-(2-hydroxyacetoxy) hexahydro-1H-3,6-methanocyclopenta[e][1,3]dioxepin-7-yl3,4-dihydroxybenzoate]
H292 cell viability (%, mean ± variation) (H292 cell; 2.5 μm): 101.88 ± 3.71% | H292 cell viability (%, mean ± variation) (H292 cell; 5 μm): 102.46 ± 3.96% | H292 cell viability (%, mean ± variation) (H292 cell; 10 μm): 99.89 ± 4.79% | H292 cell viability (%, mean ± variation) (H292 cell; 20 μm): 97.87 ± 2.92% | cytotoxicity in H292 cell (H292 cell; at less than 20 μm): did not show cytotoxicity | Expressed level of MUC5AC mRNA (Relative % comparing with that in TNF-alpha treatment group) (MUC5AC; 10 μM): 58.47% and 58.47 ± 18.50% | Inhibitory ratio (%) of MUC5AC mRNA expression (MUC5AC; 10 μm): 41.52% | Inhibitory ratio (%) of MUC5AC secretion (MUC5AC protein; 2.5 μm): 6.62% | MUC5AC secretion (relative % comparing with TNF-alpha treatment group) (MUC5AC protein; 2.5 μm): 93.38% and 93.38 ± 0.90% | Inhibitory ratio (%) of MUC5AC secretion (MUC5AC protein; 5 μm): 21.73% | MUC5AC secretion (relative % comparing with TNF-alpha treatment group) (MUC5AC protein; 5 μm): 78.27% and 78.27 ± 2.16% | Inhibitory ratio (%) of MUC5AC secretion (MUC5AC protein; 10 μm): 35.23% | MUC5AC secretion (relative % comparing with TNF-alpha treatment group) (MUC5AC protein; 10 μm): 64.77% and 64.77 ± 1.56%
